Experimental data reported in US20240158446A1, “CYCLIC COMPOUND HAVING SELECTIVE INHIBITORY ACTION ON KRAS OVER HRAS AND NRAS” (CHUGAI SEIYAKU KABUSHIKI KAISHA, priority 2021, published 2024).

Columns and labels:
[1] = target: GDP-bound HRAS wild-type protein (Homo sapiens, UniProt P01112); assay: Binding to HRAS by surface plasmon resonance (SPR), Single Cycle Kinetics; settings: SPR, GDP-bound HRAS wild-type protein vs GDP-bound KRAS wild-type protein
[2] = target: GDP-bound KRAS wild-type protein (Homo sapiens, UniProt P01116); assay: Binding to KRAS by surface plasmon resonance (SPR), Single Cycle Kinetics; settings: SPR, Single Cycle Kinetics, GDP-bound KRAS wild-type protein; read-out: KRAS KD
Sequence of GDP-bound KRAS wild-type protein (P01116 whole entry): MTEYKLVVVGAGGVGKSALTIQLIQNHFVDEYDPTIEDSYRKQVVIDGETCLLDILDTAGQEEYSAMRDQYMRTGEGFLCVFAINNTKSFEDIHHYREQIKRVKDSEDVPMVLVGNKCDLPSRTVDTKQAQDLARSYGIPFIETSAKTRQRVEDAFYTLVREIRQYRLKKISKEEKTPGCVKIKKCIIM

[3] = target: GDP-bound NRAS wild-type protein (Homo sapiens, UniProt P01111); assay: Binding to NRAS by surface plasmon resonance (SPR), Single Cycle Kinetics; settings: SPR, GDP-bound NRAS wild-type protein vs GDP-bound KRAS wild-type protein
Sequence of GDP-bound NRAS wild-type protein (P01111 whole entry): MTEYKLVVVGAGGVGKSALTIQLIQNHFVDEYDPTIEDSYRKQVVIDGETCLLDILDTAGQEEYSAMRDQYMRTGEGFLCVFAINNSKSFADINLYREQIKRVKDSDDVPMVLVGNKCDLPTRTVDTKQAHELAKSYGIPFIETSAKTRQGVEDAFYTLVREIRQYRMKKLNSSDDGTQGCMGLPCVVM

Sequence of GDP-bound HRAS wild-type protein (P01112 whole entry): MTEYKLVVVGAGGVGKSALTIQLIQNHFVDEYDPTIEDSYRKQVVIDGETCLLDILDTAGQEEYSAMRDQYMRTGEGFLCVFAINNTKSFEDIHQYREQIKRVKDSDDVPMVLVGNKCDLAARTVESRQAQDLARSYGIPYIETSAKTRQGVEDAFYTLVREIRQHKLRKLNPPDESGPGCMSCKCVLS

For `CCCOC[C@H]1C(=O)N[C@@H]([C@@H](C)CC)C(=O)N2CCC[C@H]2C(=O)N(C)[C@H]2C/C=C\CCN(C2=O)[C@@H](Cc2ccc(C)cc2)C(=O)N(C)CC(=O)N[C@@H](CCc2ccc(C(F)(F)F)c(OC)c2)C(=O)N2C[C@H](OCC)C[C@H]2C(=O)N(C)C2(CCC2)C(=O)N(C)[C@@H](C2CCCC2)C(=O)N(C)[C@H](C(=O)N(C)C)CC(=O)N1C` [PP2334], the “HRAS/KRAS (ratio of KD value for HRAS to KD value for KRAS)” value [1] was “B (a compound having 3 or more and less than 10 is denoted as B)”, the Kd [2] was 0.13 nM and the “NRAS/KRAS (ratio of KD value for NRAS to KD value for KRAS)” value [3] was “A (a compound having 10 or more and less than 20 is denoted as A)”.

`CCO[C@@H]1C[C@H]2C(=O)N(C)C3(CCC3)C(=O)N(C)[C@@H](C(CC)CC)C(=O)N(C)[C@H](C(=O)N(C)C)CC(=O)N(C)[C@@H](COC)C(=O)N[C@@H]([C@@H](C)CC)C(=O)N(C)CC(=O)N(C)[C@H]3C/C=C\CCN(C3=O)[C@@H](CC3CCCCC3)C(=O)N(C)CC(=O)N[C@@H](CCc3ccc(C(F)(F)F)c(OC)c3)C(=O)N2C1` [PP2335] was tested, and the “HRAS/KRAS (ratio of KD value for HRAS to KD value for KRAS)” value [1] was “A (a compound having 10 or more and less than 20 is denoted as A)”, the Kd [2] was 1.4 nM and the “NRAS/KRAS (ratio of KD value for NRAS to KD value for KRAS)” value [3] was “A (a compound having 10 or more and less than 20 is denoted as A)”.

For `CCC[C@H]1C(=O)N[C@@H]([C@@H](C)CC)C(=O)N(C)CC(=O)N(C)[C@H]2C/C=C\CCN(C2=O)[C@@H](CC2CCCCC2)C(=O)N(C)CC(=O)N[C@@H](CCc2ccc(C(F)(F)F)c(OC)c2)C(=O)N2C[C@H](OCC)C[C@H]2C(=O)N(C)C2(CCC2)C(=O)N(C)[C@@H](C2CCCC2)C(=O)N(C)[C@H](C(=O)N(C)C)CC(=O)N1C` [PP2336], the “HRAS/KRAS (ratio of KD value for HRAS to KD value for KRAS)” value [1] was “A (a compound having 10 or more and less than 20 is denoted as A)”, the Kd [2] was 0.41 nM and the “NRAS/KRAS (ratio of KD value for NRAS to KD value for KRAS)” value [3] was “A (a compound having 10 or more and less than 20 is denoted as A)”.

With `CCO[C@@H]1C[C@H]2C(=O)N(C)C3(CCC3)C(=O)N(C)[C@@H](C(CC)CC)C(=O)N(C)[C@H](C(=O)N(C)C)CC(=O)N(C)[C@@H](COC)C(=O)N[C@@H]([C@@H](C)CC)C(=O)N(C3CC3)CC(=O)N(C)[C@H]3C/C=C\CCN(C3=O)[C@@H](CC3CCCCC3)C(=O)N(C)CC(=O)N[C@@H](CCc3ccc(C(F)(F)F)c(OC)c3)C(=O)N2C1` [PP2339] the “HRAS/KRAS (ratio of KD value for HRAS to KD value for KRAS)” value [1] was “A (a compound having 10 or more and less than 20 is denoted as A)”, the Kd [2] was 2.6 nM and the “NRAS/KRAS (ratio of KD value for NRAS to KD value for KRAS)” value [3] was “A (a compound having 10 or more and less than 20 is denoted as A)”.

For `CCC[C@H]1C(=O)N[C@@H]([C@@H](C)CC)C(=O)N2CCC[C@H]2C(=O)N(C)[C@H]2C/C=C\CCN(C2=O)[C@@H](CC2CCCCC2)C(=O)N(C)CC(=O)N[C@@H](CCc2ccc(C(F)(F)F)c(OC)c2)C(=O)N2C[C@H](OCC)C[C@H]2C(=O)N(C)C2(CCC2)C(=O)N(C)[C@@H](C(CC)CC)C(=O)N(C)[C@H](C(=O)N(C)C)CC(=O)N1C` [PP2341], the “HRAS/KRAS (ratio of KD value for HRAS to KD value for KRAS)” value [1] was “A (a compound having 10 or more and less than 20 is denoted as A)”, the Kd [2] was 3.6 nM and the “NRAS/KRAS (ratio of KD value for NRAS to KD value for KRAS)” value [3] was “A (a compound having 10 or more and less than 20 is denoted as A)”.

In the case of `CCC[C@H]1C(=O)N[C@@H]([C@@H](C)CC)C(=O)N2CCC[C@H]2C(=O)N(C)[C@H]2C/C=C\CCN(C2=O)[C@@H](CC2CCCCC2)C(=O)N(C)CC(=O)N[C@@H](CCc2ccc(C(F)(F)F)c(OC)c2)C(=O)N2C[C@H](OCC)C[C@H]2C(=O)N(C)C2(CCC2)C(=O)N(C)[C@@H](C2CCCC2)C(=O)N(C)[C@H](C(=O)N(C)C)CC(=O)N1C` [PP2344], the “HRAS/KRAS (ratio of KD value for HRAS to KD value for KRAS)” value [1] is reported as “A (a compound having 10 or more and less than 20 is denoted as A)”, the Kd [2] is reported as 0.95 nM and the “NRAS/KRAS (ratio of KD value for NRAS to KD value for KRAS)” value [3] is reported as “A (a compound having 10 or more and less than 20 is denoted as A)”.

`CCC[C@H]1C(=O)N[C@@H]([C@@H](C)CC)C(=O)N(C)CC(=O)N(C)[C@H]2C/C=C\CCN(C2=O)[C@@H](CC2CCC(F)(F)CC2)C(=O)N(C)CC(=O)N[C@@H](CCc2ccc(C(F)(F)F)c(OC)c2)C(=O)N2C[C@H](OCC)C[C@H]2C(=O)N(C)C2(CCC2)C(=O)N(C)[C@@H](C(CC)CC)C(=O)N(C)[C@H](C(=O)N(C)C)CC(=O)N1C` [PP2345] was tested, and the “HRAS/KRAS (ratio of KD value for HRAS to KD value for KRAS)” value [1] was “A (a compound having 10 or more and less than 20 is denoted as A)”, the Kd [2] was 1.7 nM and the “NRAS/KRAS (ratio of KD value for NRAS to KD value for KRAS)” value [3] was “A (a compound having 10 or more and less than 20 is denoted as A)”.

In the case of `CCOC[C@H]1C(=O)N[C@@H]([C@@H](C)CC)C(=O)N(C)CC(=O)N(C)[C@H]2C/C=C\CCN(C2=O)[C@@H](CC2CCC(F)(F)CC2)C(=O)N(C)CC(=O)N[C@@H](CCc2ccc(C(F)(F)F)c(OC)c2)C(=O)N2C[C@H](OCC)C[C@H]2C(=O)N(C)C2(CCC2)C(=O)N(C)[C@@H](C(CC)CC)C(=O)N(C)[C@H](C(=O)N(C)C)CC(=O)N1C` [PP2347], the “HRAS/KRAS (ratio of KD value for HRAS to KD value for KRAS)” value [1] is reported as “A (a compound having 10 or more and less than 20 is denoted as A)”, the Kd [2] is reported as 1.6 nM and the “NRAS/KRAS (ratio of KD value for NRAS to KD value for KRAS)” value [3] is reported as “A (a compound having 10 or more and less than 20 is denoted as A)”.

`CCC[C@H]1C(=O)N[C@@H]([C@@H](C)CC)C(=O)N(C)CC(=O)N(C)[C@H]2C/C=C\CCN(C2=O)[C@@H](CC2CCC(F)(F)CC2)C(=O)N(C)CC(=O)N[C@@H](CCc2ccc(C(F)(F)F)c(OC)c2)C(=O)N2C[C@H](OCC)C[C@H]2C(=O)N(C)C2(CCC2)C(=O)N(C)[C@@H](C2CCCC2)C(=O)N(C)[C@H](C(=O)N(C)C)CC(=O)N1C` [PP2348] was tested, and the “HRAS/KRAS (ratio of KD value for HRAS to KD value for KRAS)” value [1] was “A (a compound having 10 or more and less than 20 is denoted as A)”, the Kd [2] was 0.34 nM and the “NRAS/KRAS (ratio of KD value for NRAS to KD value for KRAS)” value [3] was “A (a compound having 10 or more and less than 20 is denoted as A)”.

`CCC[C@H]1C(=O)N[C@@H]([C@@H](C)CC)C(=O)N(C2CC2)CC(=O)N(C)[C@H]2C/C=C\CCN(C2=O)[C@@H](CC2CCC(F)(F)CC2)C(=O)N(C)CC(=O)N[C@@H](CCc2ccc(C(F)(F)F)c(OC)c2)C(=O)N2C[C@H](OCC)C[C@H]2C(=O)N(C)C2(CCC2)C(=O)N(C)[C@@H](C(CC)CC)C(=O)N(C)[C@H](C(=O)N(C)C)CC(=O)N1C` [PP2349] was tested, and the “HRAS/KRAS (ratio of KD value for HRAS to KD value for KRAS)” value [1] was “A (a compound having 10 or more and less than 20 is denoted as A)”, the Kd [2] was 3.8 nM and the “NRAS/KRAS (ratio of KD value for NRAS to KD value for KRAS)” value [3] was “A (a compound having 10 or more and less than 20 is denoted as A)”.

In the case of `CCCOC[C@H]1C(=O)N[C@@H]([C@@H](C)CC)C(=O)N(C)CC(=O)N(C)[C@H]2C/C=C\CCN(C2=O)[C@@H](CC2CCC(F)(F)CC2)C(=O)N(C)CC(=O)N[C@@H](CCc2ccc(C(F)(F)F)c(OC)c2)C(=O)N2C[C@H](OCC)C[C@H]2C(=O)N(C)C2(CCC2)C(=O)N(C)[C@@H](C2CCCC2)C(=O)N(C)[C@H](C(=O)N(C)C)CC(=O)N1C` [PP2350], the “HRAS/KRAS (ratio of KD value for HRAS to KD value for KRAS)” value [1] is reported as “A (a compound having 10 or more and less than 20 is denoted as A)”, the Kd [2] is reported as 0.35 nM and the “NRAS/KRAS (ratio of KD value for NRAS to KD value for KRAS)” value [3] is reported as “A (a compound having 10 or more and less than 20 is denoted as A)”.

`CCC[C@H]1C(=O)N[C@@H]([C@@H](C)CC)C(=O)N(C2CC2)CC(=O)N(C)[C@H]2C/C=C\CCN(C2=O)[C@@H](CC2CCC(F)(F)CC2)C(=O)N(C)CC(=O)N[C@@H](CCc2ccc(C(F)(F)F)c(OC)c2)C(=O)N2C[C@H](OCC)C[C@H]2C(=O)N(C)C2(CCC2)C(=O)N(C)[C@@H](C2CCCC2)C(=O)N(C)[C@H](C(=O)N(C)C)CC(=O)N1C` [PP2352] was tested, and the “HRAS/KRAS (ratio of KD value for HRAS to KD value for KRAS)” value [1] was “A (a compound having 10 or more and less than 20 is denoted as A)”, the Kd [2] was 0.76 nM and the “NRAS/KRAS (ratio of KD value for NRAS to KD value for KRAS)” value [3] was “A (a compound having 10 or more and less than 20 is denoted as A)”.

For `CCC[C@H]1C(=O)N[C@@H]([C@@H](C)CC)C(=O)N2CCC[C@H]2C(=O)N(C)[C@H]2C/C=C\CCN(C2=O)[C@@H](CC2CCC(F)(F)CC2)C(=O)N(C)CC(=O)N[C@@H](CCc2ccc(C(F)(F)F)c(OC)c2)C(=O)N2C[C@H](OCC)C[C@H]2C(=O)N(C)C2(CCC2)C(=O)N(C)[C@@H](C(CC)CC)C(=O)N(C)[C@H](C(=O)N(C)C)CC(=O)N1C` [PP2353], the “HRAS/KRAS (ratio of KD value for HRAS to KD value for KRAS)” value [1] was “A (a compound having 10 or more and less than 20 is denoted as A)”, the Kd [2] was 4.1 nM and the “NRAS/KRAS (ratio of KD value for NRAS to KD value for KRAS)” value [3] was “A (a compound having 10 or more and less than 20 is denoted as A)”.

`CC[C@H](C)[C@@H]1NC(=O)[C@H](COC)N(C)C(=O)C[C@@H](C(=O)N(C)C)N(C)C(=O)[C@H](C2CCCC2)N(C)C(=O)C2(CC(C)(C)C2)NC(=O)[C@@H]2C[C@@H](C)CN2C(=O)[C@H](CCc2ccc(C(F)(F)F)c(OC)c2)NC(=O)CN(C)C(=O)[C@H](Cc2ccc(C)cc2)N2CC/C=C\C[C@@H](C2=O)N(C)C(=O)CN(C)C1=O` [PP2387] was tested, and the “HRAS/KRAS (ratio of KD value for HRAS to KD value for KRAS)” value [1] was “A (a compound having 10 or more and less than 20 is denoted as A)”, the Kd [2] was 0.11 nM and the “NRAS/KRAS (ratio of KD value for NRAS to KD value for KRAS)” value [3] was “A (a compound having 10 or more and less than 20 is denoted as A)”.

For `CC[C@H](C)[C@@H]1NC(=O)[C@H](COC)N(C)C(=O)C[C@@H](C(=O)N(C)C)N(C)C(=O)[C@H](C2CCCC2)N(C)C(=O)C2(CC(C)(C)C2)NC(=O)[C@@H]2C[C@@H](OC(C)C)CN2C(=O)[C@H](CCc2cc(F)c(C(F)(F)F)c(F)c2)NC(=O)CN(C)C(=O)[C@H](CC2CCCCC2)N2CC/C=C\C[C@@H](C2=O)N(C)C(=O)CN(C2CC2)C1=O` [PP2511], the “HRAS/KRAS (ratio of KD value for HRAS to KD value for KRAS)” value [1] was “A (a compound having 10 or more and less than 20 is denoted as A)”, the Kd [2] was 0.95 nM and the “NRAS/KRAS (ratio of KD value for NRAS to KD value for KRAS)” value [3] was “A (a compound having 10 or more and less than 20 is denoted as A)”.
